Test results from US20230310445A1, “LOX ENZYME INHIBITING METHODS AND COMPOSITIONS” (ANOVIA BIOSCIENCES, INC., priority 2020, published 2023).

These molecules were tested against T1, Bovine lysyl oxidase (LOX) (Bos taurus, UniProt P33072) (assay: LOX inhibition assay (fluorometric, cadaverine/Amplex Red/HRP)). Conditions: IC50 class; bovine tendon LOX, cadaverine substrate; read-out: Activity Range LOX.
T1 construct: from tissue; host or cells: adult bovine tendon
T1 sequence (P33072 170-418): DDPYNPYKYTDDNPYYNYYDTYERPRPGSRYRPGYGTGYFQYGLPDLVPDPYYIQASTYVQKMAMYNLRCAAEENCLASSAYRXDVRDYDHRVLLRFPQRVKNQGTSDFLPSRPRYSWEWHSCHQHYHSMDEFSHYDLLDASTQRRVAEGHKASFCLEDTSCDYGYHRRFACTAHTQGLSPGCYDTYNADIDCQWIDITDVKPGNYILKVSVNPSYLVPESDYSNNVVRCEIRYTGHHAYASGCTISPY
Assay type: biochemical
Outline: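 Bovine tendon-extracted LOX was preincubated 30 min at 37 °C with compound. Cadaverine/Amplex Red/HRP was then added and fluorescence (ex530/em600) monitored for 120 min at 37 °C. Progress-curve slopes, background-subtracted against no-protein wells, were normalised to DMSO controls and fitted with a four-parameter variable-slope dose-response model.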

`CS(=O)(=O)[C@H]1C[C@@H](S(=O)(=O)c2cccc(CN)c2)CN(c2ccccc2)C1` (racemic) [Example 23, cis-(3-((-5-(Methylsulfonyl)-1-phenylpiperidin-3-yl)sulfonyl)phenyl)methanamine] and `CS(=O)(=O)[C@@H]1C[C@@H](S(=O)(=O)c2cccc(CN)c2)CN(c2ccccc2)C1` (racemic) [Example 79, trans-(3-((-5-(Methylsulfonyl)-1-phenylpiperidin-3-yl)sulfonyl)phenyl)methanamine] cannot be ordered by IC50: > 30 µM for the first, > 30 µM for the second.

`CS(=O)(=O)N1C[C@H](Oc2cccc(CN)c2)C[C@H](c2ccccc2F)C1` (racemic) [Example 70, cis-(3-((5-(2-Fluorophenyl)-1-(methylsulfonyl)piperidin-3-yl)oxy)phenyl)methanamine 2,2,2-trifluoroacetate] and `CS(=O)(=O)[C@H]1C[C@@H](S(=O)(=O)c2cccc(CN)c2)CN(c2ccccc2F)C1` (racemic) [Example 92, cis-(3-((-1-(2-Fluorophenyl)-5-(methylsulfonyl)piperidin-3-yl)sulfonyl)phenyl)methanamine 2,2,2-trifluoroacetate] cannot be ordered by IC50: > 30 µM for the first, > 30 µM for the second.

`CN(C)C(=O)N1C[C@@H](c2ccccc2)C[C@@H](S(=O)(=O)c2cccc(CN)c2)C1.O=C(O)C(F)(F)F` (racemic) [Example 74, cis-3-((3-(Aminomethyl)phenyl)sulfonyl)-N,N-dimethyl-5-phenylpiperidine-1-carboxamide 2,2,2-trifluoroacetate] and `NCc1cccc(S(=O)(=O)N2C[C@H](C(=O)N3CCS(=O)(=O)CC3)C[C@@H](c3ccccc3)C2)c1` (racemic) [Example 85, trans-(1-((3-(Aminomethyl)phenyl)sulfonyl)-5-phenylpiperidin-3-yl)(1,1-dioxidothiomorpholino)methanone 2,2,2-trifluoroacetate] cannot be ordered by IC50: > 30 µM for the first, > 30 µM for the second.

`NCc1ccc(S(=O)(=O)N2C[C@H](C(=O)N3CCS(=O)(=O)CC3)C[C@@H](c3ccccc3)C2)s1.O=C(O)C(F)(F)F` (racemic) [Example 75B, trans-(1-((5-(Aminomethyl)thiophen-2-yl)sulfonyl)-5-phenylpiperidin-3-yl)(1,1-dioxidothiomorpholino)methanone 2,2,2-trifluoroacetate] and `NCc1ccc(S(=O)(=O)N2C[C@H](C(=O)N3CCOCC3)C[C@H](c3ccccc3)C2)s1` [Example 13B, ((3R,5R)-1-((5-(aminomethyl)thiophen-2-yl)sulfonyl)-5-phenylpiperidin-3-yl)(morpholino)methanone] cannot be ordered by IC50: ≤ 0.5 µM for the first, ≤ 0.5 µM for the second.

`CS(=O)(=O)N1CCN(C(=O)[C@H]2C[C@@H](c3ccccc3F)CN(S(=O)(=O)c3ccc(CN)s3)C2)CC1.O=C(O)C(F)(F)F` (racemic) [Example 91, cis-(1-((5-(Aminomethyl)thiophen-2-yl)sulfonyl)-5-(2-fluorophenyl)piperidin-3-yl)(4-(methylsulfonyl)piperazin-1-yl)methanone 2,2,2-trifluoroacetate] and `NCc1ccc(S(=O)(=O)N2C[C@@H](C(=O)N3CCOCC3)C[C@@H](C3CCCCC3)C2)s1.O=C(O)C(F)(F)F` (racemic) [Example 120, cis-(1-((5-(Aminomethyl)thiophen-2-yl)sulfonyl)-5-cyclohexylpiperidin-3-yl)(morpholino)methanone 2,2,2-trifluoroacetate] cannot be ordered by IC50: ≤ 0.5 µM for the first, ≤ 0.5 µM for the second.

First: NCc1cccc(S(=O)(=O)N2C[C@H](C(=O)N3CCS(=O)(=O)CC3)C[C@@H](c3ccccc3)C2)n1 (racemic) [Example 115T, trans-(1-((6-(Aminomethyl)pyridin-2-yl)sulfonyl)-5-phenylpiperidin-3-yl)(1,1-dioxidothiomorpholino)methanone 2,2,2-trifluoroacetate]
Second: NCc1ccnc(S(=O)(=O)N2C[C@@H](C(=O)N3CCS(=O)(=O)CC3)C[C@@H](c3ccccc3)C2)c1 (racemic) [Example 134, cis-(1-((4-(Aminomethyl)pyridin-2-yl)sulfonyl)-5-phenylpiperidin-3-yl)(1,1-dioxidothiomorpholino)methanone 2,2,2-trifluoroacetate]
The IC50 of the first is higher: > 30 µM for the first, 1 to 30 µM for the second. The second is the more potent here.

First: NCc1cccc(S(=O)(=O)N2C[C@@H](C(=O)N3CCOCC3)C[C@@H](C3CCCCC3)C2)c1 (racemic) [Example 139, cis-(1-((3-(Aminomethyl)phenyl)sulfonyl)-5-cyclohexylpiperidin-3-yl)(morpholino)methanone]
Second: NCc1ccnc(S(=O)(=O)N2C[C@@H](C(=O)N3CCOCC3)C[C@@H](C3CCCCC3)C2)c1 (racemic) [Example 145, cis-(1-((4-(Aminomethyl)pyridin-2-yl)sulfonyl)-5-cyclohexylpiperidin-3-yl)(morpholino)methanone 2,2,2-trifluoroacetate]
The IC50 of the first is higher: > 30 µM for the first, 1 to 30 µM for the second. The second is the more potent here.

First: NCc1cccc(S(=O)(=O)N2C[C@@H](C(=O)N3CCS(=O)(=O)CC3)C[C@@H](C3CCCCC3)C2)c1 (racemic) [Example 140, cis-(1-((3-(Aminomethyl)phenyl)sulfonyl)-5-cyclohexylpiperidin-3-yl)(1,1-dioxidothiomorpholino)methanone]
Second: NCc1ccnc(S(=O)(=O)N2C[C@@H](C(=O)N3CCS(=O)(=O)CC3)C[C@@H](C3CCCCC3)C2)c1.O=C(O)C(F)(F)F (racemic) [Example 146, cis-(1-((4-(Aminomethyl)pyridin-2-yl)sulfonyl)-5-cyclohexylpiperidin-3-yl)(1,1-dioxidothiomorpholino)methanone 2,2,2-trifluoroacetate]
The IC50 of the first is higher: > 30 µM for the first, 1 to 30 µM for the second.

First: CN(C)C(=O)[C@H]1C[C@@H](C2CCCCC2)CN(S(=O)(=O)c2cc(CN)ccn2)C1 (racemic) [Example 144, cis-1-((4-(Aminomethyl)pyridin-2-yl)sulfonyl)-5-cyclohexyl-N,N-dimethylpiperidine-3-carboxamide 2,2,2-trifluoroacetate]
Second: CN(C)C(=O)[C@H]1C[C@@H](C2CCCCC2)CN(S(=O)(=O)c2cccc(CN)c2)C1 (relative stereo) [Example 138, cis-1-((3-(Aminomethyl)phenyl)sulfonyl)-5-cyclohexyl-N,N-dimethylpiperidine-3-carboxamide 2,2,2-trifluoroacetate]
The IC50 of the first is lower: 1 to 30 µM for the first, > 30 µM for the second. The first is the more potent here.

`NCc1ccnc(S(=O)(=O)N2C[C@@H](C(=O)N3CCOCC3)C[C@@H](c3ccccc3)C2)c1` (relative stereo) [Example 133, cis-(1-((4-(Aminomethyl)pyridin-2-yl)sulfonyl)-5-phenylpiperidin-3-yl)(morpholino)methanone 2,2,2-trifluoroacetate] and `NCc1ccnc(S(=O)(=O)N2C[C@H](C(=O)N3CCOCC3)C[C@H](c3ccccc3)C2)c1` [Example 133B, ((3R,5R)-1-((4-(aminomethyl)pyridin-2-yl)sulfonyl)-5-phenylpiperidin-3-yl)(morpholino)methanone 2,2,2-trifluoroacetate] fall in the same range of IC50: 1 to 30 µM for the first, 1 to 30 µM for the second.

Work on `NCc1ccnc(S(=O)(=O)N2C[C@@H](C(=O)N3CCOCC3)C[C@@H](c3ccccc3)C2)c1` [Example 133A, ((3S,5S)-1-((4-(aminomethyl)pyridin-2-yl)sulfonyl)-5-phenylpiperidin-3-yl)(morpholino)methanone 2,2,2-trifluoroacetate] yielded an IC50 of 1 to 30 µM.
